Source: patent publication US7485661B2, “Heterobicyclic pyrazole derivatives as kinase inhibitors” (Pfizer Italia S.r.l., priority 2005, dated 2009)

melting point: 231 to 233 °C
Structure (SMILES): CCOC(=O)c1cc2[nH]nc(N)c2s1 [Compound 6, Ethyl 3-amino-1H-thieno[3,2-c]pyrazole-5-carboxylate]
